Source: ChEMBL document CHEMBL4507320, “Data for DCP probe NVS-MALT1” (2021)
Activity calls are given as the source filed them. The calls are words filed in the database; no cut-off is given here.

Experiments:
[1] = biological target: 5-hydroxytryptamine receptor 7 (Homo sapiens, UniProt P34969); assay: GPCRScan assay: inhibition of 5-HT7A; parameters: radioligand conc. used [nm] 5.0 – 6.0, parental cells Stable HEK
[2] = biological target: T1, Sigma non-opioid intracellular receptor 1 (Homo sapiens, UniProt Q99720); assay: GPCRScan assay: inhibition of Sigma 1; parameters: radioligand conc. used [nm] 4.0 – 5.0, parental cells HEKT
[3] = biological target: Activin receptor type-1B (Homo sapiens) (UniProt P36896); settings: Compound concentration 1000.0 nM
[4] = biological target: Activin receptor type-2B (Homo sapiens) (UniProt Q13705); settings: Compound concentration 1000.0 nM
[5] = biological target: Tyrosine-protein kinase receptor UFO (Homo sapiens) (UniProt P30530); settings: Compound concentration 1000.0 nM
[6] = biological target: Mitotic checkpoint serine/threonine-protein kinase BUB1 (Homo sapiens) (UniProt O43683); settings: Compound concentration 1000.0 nM
[7] = biological target: Cyclin-dependent kinase 4 (Homo sapiens) (UniProt P11802); settings: Compound concentration 1000.0 nM
[8] = biological target: Dual specificity protein kinase CLK1 (Homo sapiens) (UniProt P49759); settings: Compound concentration 1000.0 nM
[9] = biological target: Mitogen-activated protein kinase kinase kinase 12 (Homo sapiens) (UniProt Q12852); settings: Compound concentration 1000.0 nM
[10] = biological target: Mitogen-activated protein kinase 1 (Homo sapiens) (UniProt P28482); settings: Compound concentration 1000.0 nM
[11] = biological target: Mitogen-activated protein kinase 15 (Homo sapiens) (UniProt Q8TD08); settings: Compound concentration 1000.0 nM
[12] = biological target: Mitogen-activated protein kinase kinase kinase kinase 1 (Homo sapiens) (UniProt Q92918); settings: Compound concentration 1000.0 nM
[13] = biological target: Inhibitor of nuclear factor kappa-B kinase subunit alpha (Homo sapiens) (UniProt O15111); settings: Compound concentration 1000.0 nM
[14] = tested on: Leucine-rich repeat serine/threonine-protein kinase 2 (Homo sapiens), Q5S007 [G2019S]; settings: Compound concentration 1000.0 nM
[15] = biological target: Serine/threonine-protein kinase MAK (Homo sapiens) (UniProt P20794); settings: Compound concentration 1000.0 nM
[16] = biological target: Serine/threonine-protein kinase Nek1 (Homo sapiens) (UniProt Q96PY6); settings: Compound concentration 1000.0 nM
[17] = biological target: Serine/threonine-protein kinase Nek6 (Homo sapiens) (UniProt Q9HC98); settings: Compound concentration 1000.0 nM
[18] = biological target: Mitogen-activated protein kinase 14 (Homo sapiens) (UniProt Q16539); settings: Compound concentration 1000.0 nM
[19] = biological target: Cyclin-dependent kinase 18 (Homo sapiens) (UniProt Q07002); settings: Compound concentration 1000.0 nM
[20] = biological target: Serine/threonine-protein kinase PLK1 (Homo sapiens) (UniProt P53350); settings: Compound concentration 1000.0 nM
[21] = biological target: Dual serine/threonine and tyrosine protein kinase (Homo sapiens) (UniProt Q6XUX3); settings: Compound concentration 1000.0 nM
[22] = biological target: Serine/threonine-protein kinase SIK1 (Homo sapiens) (UniProt P57059); settings: Compound concentration 1000.0 nM
[23] = biological target: STE20/SPS1-related proline-alanine-rich protein kinase (Homo sapiens) (UniProt Q9UEW8); settings: Compound concentration 1000.0 nM
[24] = biological target: TRAF2 and NCK-interacting protein kinase (Homo sapiens) (UniProt Q9UKE5); settings: Compound concentration 1000.0 nM
[25] = biological target: BDNF/NT-3 growth factors receptor (Homo sapiens) (UniProt Q16620); settings: Compound concentration 1000.0 nM
[26] = biological target: Serine/threonine-protein kinase VRK2 (Homo sapiens) (UniProt Q86Y07); settings: Compound concentration 1000.0 nM
[27] = biological target: Serine/threonine-protein kinase WNK2 (Homo sapiens) (UniProt Q9Y3S1); settings: Compound concentration 1000.0 nM
[28] = biological target: D(1A) dopamine receptor (Homo sapiens) (UniProt P21728); settings: Compound concentration 10.0 uM
[29] = biological target: T1, Sigma non-opioid intracellular receptor 1; settings: Compound concentration 10.0 uM
[30] = biological target: Receptor-type tyrosine-protein kinase FLT3 (Homo sapiens, UniProt P36888); assay: Kinase panel; parameters: compound concentration 10 uM
[31] = biological target: Cathepsin G (Homo sapiens) (UniProt P08311); assay: Cathepsin G (h) Protease assay; settings: Compound concentration 10.0 uM
[32] = biological target: Procathepsin L (Homo sapiens) (UniProt P07711); assay: Cathepsin L (h) Protease assay; settings: Compound concentration 10.0 uM
[33] = biological target: Cathepsin S (Homo sapiens) (UniProt P25774); assay: Cathepsin S (h) Protease assay; settings: Compound concentration 10.0 uM
Caspase-3 (Homo sapiens) = Caspase-3 (Homo sapiens) (UniProt P42574); assay: Caspase 3 (h) Protease assay; settings: Compound concentration 10.0 uM
Chymase (Homo sapiens) = Chymase (Homo sapiens) (UniProt P23946); assay: Chymase (h) Protease assay; settings: Compound concentration 10.0 uM
[34] = biological target: Neutrophil elastase (Homo sapiens) (UniProt P08246); assay: Neutrophil elastase 2 (h) Protease assay; settings: Compound concentration 10.0 uM
[35] = biological target: Neutrophil collagenase (Homo sapiens) (UniProt P22894); assay: MMP-8 (h) Protease assay; settings: Compound concentration 10.0 uM
[36] = biological target: Prothrombin (Homo sapiens) (UniProt P00734); assay: Thrombin (h) Protease assay; settings: Compound concentration 10.0 uM
Trypsin (Homo sapiens) = Trypsin (Homo sapiens) (UniProt P07477+P07478+P35030); assay: Trypsin (h) Protease assay; type: protein assay; settings: Compound concentration 10.0 uM
[37] = biological target: Plasma kallikrein (Homo sapiens) (UniProt P03952); assay: Plasma Kallikrein Protease assay; settings: Compound concentration 10.0 uM
[38] = biological target: Histamine H3 receptor (Homo sapiens) (UniProt Q9Y5N1); settings: Compound concentration 10.0 uM
[39] = biological target: Beta-2 adrenergic receptor (Homo sapiens) (UniProt P07550); settings: Compound concentration 10.0 uM

T1 sequence (Q99720 whole entry): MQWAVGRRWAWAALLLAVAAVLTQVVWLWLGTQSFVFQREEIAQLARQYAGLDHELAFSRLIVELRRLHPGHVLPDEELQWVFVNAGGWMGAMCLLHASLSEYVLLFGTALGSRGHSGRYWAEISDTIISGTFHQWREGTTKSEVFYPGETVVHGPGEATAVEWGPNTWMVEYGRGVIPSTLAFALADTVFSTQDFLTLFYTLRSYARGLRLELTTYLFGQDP
Chain of Leucine-rich repeat serine/threonine-protein kinase 2 (Homo sapiens), Q5S007 [G2019S] (Q5S007 whole entry G2019S): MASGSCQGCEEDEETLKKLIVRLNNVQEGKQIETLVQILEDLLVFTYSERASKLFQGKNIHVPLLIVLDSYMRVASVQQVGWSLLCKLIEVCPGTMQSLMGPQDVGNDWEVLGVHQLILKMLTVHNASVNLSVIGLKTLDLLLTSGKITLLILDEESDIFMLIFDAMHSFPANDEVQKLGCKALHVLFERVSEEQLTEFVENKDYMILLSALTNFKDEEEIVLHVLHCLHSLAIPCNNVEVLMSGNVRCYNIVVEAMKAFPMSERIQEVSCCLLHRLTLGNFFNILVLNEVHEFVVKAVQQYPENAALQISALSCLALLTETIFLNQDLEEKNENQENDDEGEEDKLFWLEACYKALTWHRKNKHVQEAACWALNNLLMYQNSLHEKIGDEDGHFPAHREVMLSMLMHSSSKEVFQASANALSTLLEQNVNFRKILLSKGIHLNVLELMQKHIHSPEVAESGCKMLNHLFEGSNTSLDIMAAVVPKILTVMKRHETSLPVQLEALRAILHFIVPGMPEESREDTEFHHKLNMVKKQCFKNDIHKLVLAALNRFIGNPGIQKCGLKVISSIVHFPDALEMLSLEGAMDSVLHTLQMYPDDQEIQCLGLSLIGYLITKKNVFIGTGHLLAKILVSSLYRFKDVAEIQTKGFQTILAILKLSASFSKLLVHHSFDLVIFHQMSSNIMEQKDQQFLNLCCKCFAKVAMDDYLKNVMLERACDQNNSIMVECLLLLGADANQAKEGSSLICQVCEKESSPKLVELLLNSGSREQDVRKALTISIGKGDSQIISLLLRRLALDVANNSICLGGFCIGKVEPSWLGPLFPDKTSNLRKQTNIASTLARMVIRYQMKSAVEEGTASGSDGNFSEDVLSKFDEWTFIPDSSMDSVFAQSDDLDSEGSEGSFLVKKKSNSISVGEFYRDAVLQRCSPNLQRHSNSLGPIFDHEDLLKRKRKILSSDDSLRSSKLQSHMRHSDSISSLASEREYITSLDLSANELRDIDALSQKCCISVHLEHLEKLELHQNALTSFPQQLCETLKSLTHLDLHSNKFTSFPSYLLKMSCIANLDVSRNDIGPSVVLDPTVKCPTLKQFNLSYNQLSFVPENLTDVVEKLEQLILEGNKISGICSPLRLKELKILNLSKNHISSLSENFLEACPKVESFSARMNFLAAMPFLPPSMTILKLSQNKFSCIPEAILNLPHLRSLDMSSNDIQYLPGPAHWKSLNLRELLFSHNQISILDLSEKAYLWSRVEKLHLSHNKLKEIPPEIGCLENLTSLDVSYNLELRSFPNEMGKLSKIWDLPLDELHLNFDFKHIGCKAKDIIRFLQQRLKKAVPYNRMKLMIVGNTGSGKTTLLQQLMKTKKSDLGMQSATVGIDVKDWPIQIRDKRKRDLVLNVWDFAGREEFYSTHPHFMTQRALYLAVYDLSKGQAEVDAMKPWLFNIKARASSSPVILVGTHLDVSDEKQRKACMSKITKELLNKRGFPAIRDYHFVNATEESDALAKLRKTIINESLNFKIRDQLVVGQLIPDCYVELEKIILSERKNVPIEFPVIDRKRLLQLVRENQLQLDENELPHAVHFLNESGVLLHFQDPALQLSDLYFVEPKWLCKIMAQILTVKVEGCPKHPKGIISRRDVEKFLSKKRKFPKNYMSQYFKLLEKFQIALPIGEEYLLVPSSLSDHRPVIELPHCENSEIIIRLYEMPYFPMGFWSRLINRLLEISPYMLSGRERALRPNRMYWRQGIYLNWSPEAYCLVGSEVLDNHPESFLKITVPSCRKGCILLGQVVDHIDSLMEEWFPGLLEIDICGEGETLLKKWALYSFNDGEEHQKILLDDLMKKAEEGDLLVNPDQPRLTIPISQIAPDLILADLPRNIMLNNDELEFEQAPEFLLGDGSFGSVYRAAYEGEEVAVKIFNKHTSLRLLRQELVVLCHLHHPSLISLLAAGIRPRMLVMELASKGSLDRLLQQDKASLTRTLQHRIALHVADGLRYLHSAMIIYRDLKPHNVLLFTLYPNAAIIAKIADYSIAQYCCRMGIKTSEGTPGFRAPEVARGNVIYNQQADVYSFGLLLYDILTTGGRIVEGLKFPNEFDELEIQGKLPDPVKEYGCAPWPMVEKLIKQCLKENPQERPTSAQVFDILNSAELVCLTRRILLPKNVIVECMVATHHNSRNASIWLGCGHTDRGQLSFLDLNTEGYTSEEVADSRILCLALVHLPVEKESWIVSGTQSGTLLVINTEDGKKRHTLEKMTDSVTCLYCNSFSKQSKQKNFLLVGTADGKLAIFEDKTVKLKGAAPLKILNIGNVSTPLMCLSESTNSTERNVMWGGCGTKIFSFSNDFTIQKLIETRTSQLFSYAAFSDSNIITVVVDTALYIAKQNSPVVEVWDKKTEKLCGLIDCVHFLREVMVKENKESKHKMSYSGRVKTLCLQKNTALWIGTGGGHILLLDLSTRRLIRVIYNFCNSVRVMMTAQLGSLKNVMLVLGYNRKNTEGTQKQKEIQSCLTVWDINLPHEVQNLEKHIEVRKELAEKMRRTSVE
Chain of Dual specificity protein kinase CLK1 (Homo sapiens) (P49759 whole entry, looked up): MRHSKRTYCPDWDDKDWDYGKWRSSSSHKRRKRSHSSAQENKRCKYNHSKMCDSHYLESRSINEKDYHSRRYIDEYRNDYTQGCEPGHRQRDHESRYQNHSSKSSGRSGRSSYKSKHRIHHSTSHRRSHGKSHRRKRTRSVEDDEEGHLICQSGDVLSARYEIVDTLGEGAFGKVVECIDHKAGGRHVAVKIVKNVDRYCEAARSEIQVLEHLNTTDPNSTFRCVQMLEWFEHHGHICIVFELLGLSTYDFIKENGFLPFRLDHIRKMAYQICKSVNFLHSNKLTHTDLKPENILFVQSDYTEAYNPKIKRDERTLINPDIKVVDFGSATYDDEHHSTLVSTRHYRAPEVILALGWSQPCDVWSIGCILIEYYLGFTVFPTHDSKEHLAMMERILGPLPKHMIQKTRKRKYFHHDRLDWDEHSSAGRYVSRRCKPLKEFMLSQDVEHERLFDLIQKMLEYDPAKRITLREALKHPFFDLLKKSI
Chain of Inhibitor of nuclear factor kappa-B kinase subunit alpha (Homo sapiens) (O15111 whole entry): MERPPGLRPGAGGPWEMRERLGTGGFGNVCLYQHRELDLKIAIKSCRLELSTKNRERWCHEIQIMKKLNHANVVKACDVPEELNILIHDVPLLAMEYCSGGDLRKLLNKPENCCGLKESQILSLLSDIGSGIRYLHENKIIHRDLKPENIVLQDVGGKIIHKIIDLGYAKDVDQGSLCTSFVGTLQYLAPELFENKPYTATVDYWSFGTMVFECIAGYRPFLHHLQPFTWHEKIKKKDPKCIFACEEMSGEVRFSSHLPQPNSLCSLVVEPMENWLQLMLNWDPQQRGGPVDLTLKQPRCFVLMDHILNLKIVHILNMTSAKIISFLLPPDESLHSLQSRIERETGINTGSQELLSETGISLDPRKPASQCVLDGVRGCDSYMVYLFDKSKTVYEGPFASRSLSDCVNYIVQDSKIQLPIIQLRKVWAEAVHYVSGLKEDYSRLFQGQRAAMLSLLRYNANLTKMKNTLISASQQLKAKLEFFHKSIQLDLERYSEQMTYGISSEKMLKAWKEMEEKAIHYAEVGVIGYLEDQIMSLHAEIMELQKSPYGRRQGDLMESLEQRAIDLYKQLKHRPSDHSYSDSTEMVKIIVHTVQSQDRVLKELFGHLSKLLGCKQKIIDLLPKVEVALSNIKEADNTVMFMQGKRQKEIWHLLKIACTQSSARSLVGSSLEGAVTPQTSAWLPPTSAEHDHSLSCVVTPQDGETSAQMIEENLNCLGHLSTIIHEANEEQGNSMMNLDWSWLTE
Chain of Mitogen-activated protein kinase 1 (Homo sapiens) (P28482 whole entry): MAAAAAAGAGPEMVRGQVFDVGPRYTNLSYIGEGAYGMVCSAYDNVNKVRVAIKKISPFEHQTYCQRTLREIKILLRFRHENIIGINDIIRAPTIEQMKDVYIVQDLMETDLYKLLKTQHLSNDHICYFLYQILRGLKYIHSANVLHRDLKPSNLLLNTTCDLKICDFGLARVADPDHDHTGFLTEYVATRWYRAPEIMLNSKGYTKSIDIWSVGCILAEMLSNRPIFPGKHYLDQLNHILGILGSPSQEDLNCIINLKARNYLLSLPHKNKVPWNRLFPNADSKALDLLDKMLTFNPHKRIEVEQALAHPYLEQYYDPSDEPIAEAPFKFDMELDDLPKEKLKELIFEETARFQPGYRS
Chain of Serine/threonine-protein kinase VRK2 (Homo sapiens) (Q86Y07 whole entry): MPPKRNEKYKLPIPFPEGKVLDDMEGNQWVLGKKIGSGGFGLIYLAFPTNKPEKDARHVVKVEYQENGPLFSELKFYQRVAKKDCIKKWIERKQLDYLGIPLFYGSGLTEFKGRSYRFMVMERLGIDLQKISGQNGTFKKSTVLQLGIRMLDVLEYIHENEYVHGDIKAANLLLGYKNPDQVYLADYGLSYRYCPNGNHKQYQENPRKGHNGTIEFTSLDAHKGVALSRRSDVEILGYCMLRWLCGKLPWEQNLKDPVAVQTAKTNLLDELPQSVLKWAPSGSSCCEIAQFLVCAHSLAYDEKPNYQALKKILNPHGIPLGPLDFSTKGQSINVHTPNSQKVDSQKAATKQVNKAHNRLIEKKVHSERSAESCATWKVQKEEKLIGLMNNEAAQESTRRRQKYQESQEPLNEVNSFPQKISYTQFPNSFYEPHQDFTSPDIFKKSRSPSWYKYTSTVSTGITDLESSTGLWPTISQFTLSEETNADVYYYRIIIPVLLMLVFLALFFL
Chain of Cathepsin S (Homo sapiens) (P25774 115-331 limits assumed): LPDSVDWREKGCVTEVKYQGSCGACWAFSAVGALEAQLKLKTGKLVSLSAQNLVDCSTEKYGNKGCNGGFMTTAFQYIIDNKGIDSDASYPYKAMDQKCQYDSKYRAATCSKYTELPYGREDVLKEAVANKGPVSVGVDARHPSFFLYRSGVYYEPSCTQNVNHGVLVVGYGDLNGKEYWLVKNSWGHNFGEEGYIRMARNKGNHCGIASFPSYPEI

SMILES | residual activity [3] [%] | residual activity [4] [%] | residual activity [5] [%] | residual activity [6] [%] | residual activity [7] [%] | residual activity [8] [%] | residual activity [9] [%] | residual activity [10] [%] | residual activity [11] [%] | residual activity [12] [%] | residual activity [13] [%] | residual activity [14] [%] | residual activity [15] [%] | residual activity [16] [%] | residual activity [17] [%] | residual activity [18] [%] | residual activity [19] [%] | residual activity [20] [%] | residual activity [21] [%] | residual activity [22] [%] | also measured
CO[C@@H](C)c1c(Nc2ccc([C@@H](N(C)C(=O)C3CCS(=O)(=O)CC3)C(F)(F)F)cc2)cnc2cc(Cl)nn12 [NVS-MALT1-C] | 100 | 100 | 77 | 100 | 100 | 82 | 100 | 100 | 81 | 100 | 100 | 100 | 100 | 100 | 100 | 83 | 99 | 87 | 100 | 85 | Ki [1]: 10 µM; Ki [2]: 1.59 µM; residual activity [23]: 50%; residual activity [24]: 100%; residual activity [25]: 100%; residual activity [26]: 100%; residual activity [27]: 100%; inhibition [28]: 17.9%; inhibition [29]: 56.8%
CO[C@@H](C)c1c(Nc2ccc([C@H](N(C)C(=O)C3CCS(=O)(=O)CC3)C(F)(F)F)cc2)cnc2cc(Cl)nn12 [NVS-MALT1] | 72 | 66 | 76 | 100 | 100 | 81 | 100 | 100 | 87 | 100 | 100 | 100 | 100 | 94 | 97 | 88 | 93 | 77 | 100 | 87 | IC50 [30]: 3.5 µM (active); inhibition [31]: 7%; inhibition [32]: -3%; inhibition [33]: 7%; inhibition (Caspase-3 (Homo sapiens)): -1%; inhibition (Chymase (Homo sapiens)): -3%; inhibition [34]: -1%; inhibition [35]: 0%; inhibition [36]: 0%; inhibition (Trypsin (Homo sapiens)): 0.8%; inhibition [37]: 5%; residual activity [23]: 50%; residual activity [24]: 100%; residual activity [25]: 100%; residual activity [26]: 100%; residual activity [27]: 98%; inhibition [28]: 23.7%; inhibition [38]: -5.74%; inhibition [39]: 26.7%; inhibition [29]: 18.8%
